In general, IC50 refers to the concentration needed to halve the response being measured.

Data on 13 molecules can be found in patent US5686422A, “Synthetic inhibitors of mammalian collagenase” (Research Corporation Technologies, Inc., priority 1995, dated 1997).

Molecules are shown by their SMILES. Like-named read-outs stand apart in the source and are kept apart here.

Assay [1] addresses T1, pig synovial collagenase (Sus scrofa, UniProt P21692).
T1 construct: pig synovial collagenase (0.04 μg protein); from tissue; host or cells: pig synovium (only from the enzyme's name; preparation not described)
T1 sequence (P21692 100-469): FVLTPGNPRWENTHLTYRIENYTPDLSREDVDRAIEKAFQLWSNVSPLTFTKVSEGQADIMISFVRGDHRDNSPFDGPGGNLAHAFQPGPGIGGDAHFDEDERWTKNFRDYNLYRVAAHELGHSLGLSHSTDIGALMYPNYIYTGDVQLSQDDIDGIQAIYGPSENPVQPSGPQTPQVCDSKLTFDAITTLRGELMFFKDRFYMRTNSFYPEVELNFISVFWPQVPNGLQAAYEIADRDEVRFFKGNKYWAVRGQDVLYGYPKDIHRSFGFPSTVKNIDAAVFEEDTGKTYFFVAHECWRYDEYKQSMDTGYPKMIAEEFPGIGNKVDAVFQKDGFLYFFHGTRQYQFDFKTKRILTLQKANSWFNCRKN
The assay can be described thus: Collagenase assay: degradation of type I collagen (SDS-PAGE/densitometry or spectrophotometric). It counts as biochemical. The protocol:
Collagenase activity was determined after electrophoretic separation of degraded from undegraded type I collagen by polyacrylamide gel electrophoresis and densitometry as follows.
Acid-soluble calf skin collagen (0.25 mg/ml, approximately […]) was incubated at 35° C. for 1 hr with pig synovial collagenase (0.04 μg protein) in 0.05M tris-HCL, 0.2M NaCl, 0.25M glucose, 5 mM CaCl2, 10% dimethyl sulfoxide, pH 7.6 in a total reaction volume of 20 μL. Inhibitors were dissolved in dimethyl sulfoxide and the sulfhydryl titer determined in stock solutions immediately prior to use by the colorimetric procedure of Ellman [Ellman, G. L., Arch. Biochem. Biophys. 82: 70-77 (1959)]. At the end of the reaction period, the reactions were stopped by placing on ice and 20 μL sample dilution buffer was added [Laemmli, U. K., Nature (London) 227: 680-685 (1970)]. The samples were then placed in a boiling water bath for 2-5 minutes after which collagen degradation products were separated from undegraded collagen by sodium dodecyl sulfate-polyacrylamide electrophoresis according to the procedure of Laemmli [1970]. The electrophoretograms were fixed in isopropanol/acetic acid/water (100:40:300) and stained with 1% Coomassie Blue R-250. The percentage of collagen alpha chains degraded was estimated by scanning densitometry and integration of peak areas [Welgus et al., J. Biol. Chem. 256: 9511-9515 (1981)].
A spectrophotometric method was also utilized in some cases to determine collagenase activity [Lindy, S. et al., European J. Biochem. 156: 1-4 (1986)]. The conditions were the same as given above except that the reaction volume was 200 μL, the temperature was 37° C. and the enzyme concentration was 1.2 μg protein/ml. Stock solutions of inhibitors were prepared in 1 mM acetic acid in ethanol and the sulfhydryl titer determined colorimetrically by the method of Ellman […]. The reaction progress was monitored for 6-10 minutes by following the increase in absorbance at 227 nm that accompanies denaturation of the collagen fragments. Initial rates of collagen degradation were determined from the linear portion of the progress curves.

Assay [2] has as its target T2, Collagenase, purified from sodium hydroxide burned rabbit corneal tissue (Oryctolagus cuniculus, UniProt P13943).
T2 sequence (P13943 99-468): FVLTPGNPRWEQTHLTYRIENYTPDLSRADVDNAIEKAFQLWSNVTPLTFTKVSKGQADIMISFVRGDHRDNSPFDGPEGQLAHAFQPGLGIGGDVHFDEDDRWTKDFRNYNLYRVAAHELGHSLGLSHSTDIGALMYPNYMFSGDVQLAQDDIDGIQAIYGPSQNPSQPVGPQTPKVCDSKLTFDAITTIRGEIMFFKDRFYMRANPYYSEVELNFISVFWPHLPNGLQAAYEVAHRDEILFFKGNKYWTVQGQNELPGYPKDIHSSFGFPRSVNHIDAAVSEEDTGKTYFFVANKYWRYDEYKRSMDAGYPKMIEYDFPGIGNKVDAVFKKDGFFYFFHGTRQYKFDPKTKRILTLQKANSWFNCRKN
The assay can be described thus: Qualitative SDS-PAGE assay of collagen degradation by corneal collagenase. Type of assay: biochemical. The protocol: Collagenase, purified from sodium hydroxide burned rabbit corneal tissue, was placed in a reaction mixture containing Type I collagen (0.4 mg/ml), 0.005M Tris-HCl, 0.2M NaCl, 0.25M glucose, pH 7.7. Reactions were initiated by adding the enzyme to the reaction mixture; inhibitory potency was estimated by running separate reaction mixtures in which the peptide HSCH2 CH[CH2 CH(CH3)2 ]--CO-Phe-Ala-NH2, made in accordance with Example 2, was added in varying concentrations to the mixture and incubated for 3 hours at 30° C. Other compounds were assayed for inhibitory potency in a similar manner. Reaction mixtures were quenched by placing them on ice and then adding one volume of sample dilution buffer followed by boiling the mixtures in a water bath for 5 minutes. Collagen degradation products were resolved from undegraded collagen by sodium dodecylsulfate-polyacylamide gel electrophoresis (SDS-PAGE) followed by staining with Coomassie Blue R-250. The SDS-PAGE assay was used to qualitatively evaluate the inhibitory capacity of the compounds tested. An estimate of inhibitory potency was then noted by visualizing the concentration range which produced 50% inhibition of collagen degradation.
The results of this qualitative assay are expressed as an IC50 range (Table II). For example, doxycyline's IC50 is 0.2 to 1.0 mM. That is, a doxycycline concentration of 0.2 to 1.0 mM is required to obtain a 50% inhibition of collagen degradation. These estimated ranges were then used to predict the inhibitor concentrations tested in the quantitative analysis detailed below.

Assay [3] addresses T3, PA elastase (Pseudomonas aeruginosa, UniProt P14756).
T3 construct: made in house; host or cells: native secreted enzyme from a virulent Pseudomonas aeruginosa strain grown on tryptone glucose extract agar
The assay can be described thus: biochemical. The protocol:
Pseudomonas aeruginosa proteases were obtained by overnight incubation of virulent strain of Pseudomonas aeruginosa (PA) on tryptone glucose extract agar.
The PA elastase was tested in accordance with the procedures analogous to those conducted on purified collagenase in Example 5.
Example 7 was repeated using three corneal ulceration treatments of the prior art: Tetracycline, minocycline and doxycycline.

The target in assay [4] is T2, Collagenase, purified from sodium hydroxide burned rabbit corneal tissue. Nature of the assay: Quantitative fluorometric assay with fluorogenic Dnp-peptide substrate. It counts as biochemical. The following applies: Dnp-substrate 20 uM, 37° C. for 2 to 3 minutes. The method, then:
Quantitative determination of collagenase activity was carried out with a fluorogenic peptide substrate, Dnp-Pro-Leu-Gly-Leu-Trp-Ala-D-Arg-NH2,which collagenase cleaves to produce Dnp-Pro-Leu-Gly and Leu-Trp-Ala-D-Arg-NH2. The rate of production of the tetrapeptide was monitored with an AMINCO-BOWMAN® spectrofluorometer (excitation wavelength of 280 nm and emission wavelength of 346 nm). This test was repeated using high performance liquid chromatography (HPLC) to separate and detect the two cleaved collagenase products.
Reaction mixtures for both the fluorometric and HPLC assays contained 0.05M Tris-HCl, 0.2M NaCl, 10 mM CaCl2 and Dnp-substrate 20 uM, pH 7.7. The peptide of Example 2 was added to the assay mixtures at varying concentrations. The incubation conditions differed between the two assays; the fluorometric reaction mixtures were incubated at 37° C. for 2 to 3 minutes whereas the HPLC reaction mixtures were incubated at 37° C. for 3 hours. This was necessary because the HPLC assay was not as sensitive in detecting the substrate cleavage products as the fluorometric assay. IC50 values were interpolated from plots of log[Ao /Ai)-1[ vs. log[Inhibitor], where Ao is the activity observed in the absence of inhibitor and Ai is the activity observed in the presence of inhibitor at concentration i.

Setting [5] is: mixture containing approximately equal amounts of the two diastereomers, read-out: IC50 (uM), diastereomers not resolved.
Where [6] appears, read: SDS-PAGE, visual estimate, Type I collagen 0.4 mg/ml, 3 hours at 30° C.
[7] abbreviates: fast-eluting diastereomer (C18 reversed phase), approximate concentration giving 50% inhibition of collagen degradation, read-out: IC50 (uM) Fast Isomer.
Where [8] appears, read: slow-eluting diastereomer (C18 reversed phase), approximate concentration giving 50% inhibition of collagen degradation, read-out: IC50 (uM) Slow Isomer.

T3 sequence (P14756 198-498): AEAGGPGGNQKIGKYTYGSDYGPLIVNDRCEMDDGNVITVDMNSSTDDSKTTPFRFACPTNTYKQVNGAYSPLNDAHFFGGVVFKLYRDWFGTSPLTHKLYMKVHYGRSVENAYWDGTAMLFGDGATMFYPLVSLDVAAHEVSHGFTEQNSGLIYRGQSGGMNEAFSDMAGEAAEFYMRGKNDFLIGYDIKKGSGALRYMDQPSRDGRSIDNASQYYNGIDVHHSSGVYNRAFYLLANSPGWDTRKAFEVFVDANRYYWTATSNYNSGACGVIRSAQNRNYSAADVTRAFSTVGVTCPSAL

As for `CC(C)CC(CS)C(=O)N[C@@H](Cc1c[nH]c2ccccc12)C(=O)N[C@@H](C)C(N)=O` (some centres unmarked) [Compound 4, HSCH2 CH[CH2 CH(CH3)2]COTrpAlaNH2], the half-maximal inhibitory concentration (IC50) in assay [1] (setting [5]) is 0.05 µM. On to `O=C1O[C@H]([C@@H](O)CO)C([O-])=C1O.[Na+]` [Sodium Ascorbate], for which the “Estimated IC50 Range (mM)” value in assay [2] (setting [6]) was “No Inhibition”.

In the case of `CC(C)CC(CS)C(=O)N[C@@H](Cc1ccccc1)C(=O)N[C@@H](C)C(N)=O` (stereo partly drawn) [Compound 3, 2-[(R,S)-Mercaptomethyl]-4-methylpentanoyl-L-phenylalanyl-L-alanine amide], the values for the concentration for half-maximal inhibition (IC50) in assay [1] (setting [7]), in assay [1] (setting [8]) and in assay [3] were 0.3 µM, 0.04 µM and 0.3 µM, respectively. `O=C([O-])CC(O)(CC(=O)[O-])C(=O)[O-].[Na+].[Na+].[Na+]` [Sodium Citrate, sodium citrate] yielded a half-inhibitory concentration (IC50) in assay [4] of 45 mM. The “reversal of inhibition by excess Ca++” value in assay [2] (SDS-PAGE assay, footnote to Table II) is listed as “Reversed by addition of excess Ca++”. In addition, the “Estimated IC50 Range” value in assay [2] (setting [6]) is 10 to 30 mM.

`CC(=O)N[C@@H](CS)C(=O)O` [Acetylcysteine, acetylcysteine]: the “Estimated IC50 Range” value in assay [2] (setting [6]) is 10 to 30 mM. Regarding `CC(C)CC(CS)C(=O)N[C@@H](Cc1ccccc1)C(=O)N[C@@H](CC(C)C)C(N)=O` (stereo partly drawn) [Compound 5, 2-[(R,S)-Mercaptomethyl]-4-methylpentanoyl-L-phenylalanyl-L-leucine amide], the results for the IC50 in assay [1] (setting [7]) and in assay [1] (setting [8]) were 10 µM and 4 µM, respectively. Turning to `CC(C)CC(CS)C(=O)N[C@@H](Cc1ccccc1)C(=O)N[C@@H](Cc1ccccc1)C(N)=O` (some centres unmarked) [Compound 6, HSCH2 CH[CH2 CH(CH3)2]COPhePheNH2], the half-inhibitory concentration (IC50) in assay [1] (setting [5]) came to 2 µM. Take `CN(C)[C@@H]1C(O)=C(C(N)=O)C(=O)[C@@]2(O)C(O)=C3C(=O)c4c(O)cccc4[C@@](C)(O)[C@H]3C[C@@H]12` [Tetracycline, tetracycline]: the “Estimated IC50 Range” value in assay [2] (setting [6]) was 1 to 2 mM. In assay [3], the IC50 was 660 µM. With `CC(C)CC(CS)C(=O)N[C@@H](Cc1ccc2ccccc2c1)C(=O)N[C@@H](C)C(N)=O` (some centres unmarked) [Compound 7, HSCH2 CH[CH2 CH(CH3)2]CCNalAlaNH2], the concentration for half-maximal inhibition (IC50) in assay [1] (setting [5]) is 0.03 µM. In turn, `CN(C)c1ccc(O)c2c1C[C@H]1C[C@H]3[C@H](N(C)C)C(O)=C(C(N)=O)C(=O)[C@@]3(O)C(O)=C1C2=O` [Minocycline, minocycline] gave a 50% inhibitory concentration (IC50) in assay [3] of 260 µM. Consider `C[C@H]1c2cccc(O)c2C(=O)C2=C(O)[C@]3(O)C(=O)C(C(N)=O)=C(O)[C@@H](N(C)C)[C@@H]3[C@@H](O)[C@@H]21` [Doxycycline, doxycycline], for which the “Estimated IC50 Range” value in assay [2] (setting [6]) is 0.2 to 1 mM. Also, the half-inhibitory concentration (IC50) in assay [3] was found to be 110 µM.

For the molecule `CCOC(=O)[C@H](C)NC(=O)[C@H](CCCCNC(=O)OC(C)(C)C)NC(=O)C(CS)CC(C)C` (some centres unmarked), the IC50 in assay [1] (setting [5]) came out at 4 µM.

On to `N[C@@H](CS)C(=O)O` [Cysteine, cysteine], for which the “Estimated IC50 Range” value in assay [2] (setting [6]) was 3 to 10 mM.
